Format in all cases: biochemical
One assay concerns the target T1, ATX (autotaxin) (Homo sapiens, UniProt Q13822).
T1 construct: purchased Cayman 10803
The experiment in a line: Autotaxin Inhibition Screening Assay (choline release from LPC, LPC-CR). Conditions: for inhibition at 4 µM: 4 μM compound; for inhibition at 20 µM: 20 μM compound; for inhibition at 50 µM: 50 μM compound. In a few lines:
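20 ng ATX incubated with 100 μM 14:0 LPC in 50 mM Tris pH 8.0, 0.01% Triton X-100, 50 mM CaCl2, with choline oxidase/HRP/2 mM HVA coupling; compounds at 4, 20 and 50 μM. HVA fluorescence (ex/em 320/450 nm) read every 60 s for 90 min; inhibition % from slopes corrected for blank versus vehicle.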

The target in the next assay is T2, HDAC3 (Homo sapiens, UniProt O15379).
T2 construct: purchased Enzo Life Sciences
The experiment in a line: HDAC Inhibition Screening Assay (FLUOR DE LYS Fluorimetric Drug Discovery Kit), HDAC3. The note with it: for inhibition at 2 µM: 2 μM compound; for inhibition at 10 µM: 10 μM compound; for inhibition at 50 µM: 50 μM compound. In a few lines: (§1)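 Compounds at 2 μM, 10 μM and 50 μM were each tested against HDAC1, HDAC2 and HDAC3 using a two-step fluorimetric assay. Results are given as percent of basal control after baseline subtraction.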

Another assay deals with T3, HDAC2 (Homo sapiens, UniProt Q92769).
T3 construct: purchased Enzo Life Sciences
The experiment in a line: HDAC Inhibition Screening Assay (FLUOR DE LYS Fluorimetric Drug Discovery Kit), HDAC2. Conditions: for inhibition at 2 µM: 2 μM compound; for inhibition at 10 µM: 10 μM compound; for inhibition at 50 µM: 50 μM compound. In a few lines: as §1

A further assay has as its target T4, HDAC1 (Homo sapiens, UniProt Q13547).
T4 construct: purchased Enzo Life Sciences
Description: HDAC Inhibition Screening Assay (FLUOR DE LYS Fluorimetric Drug Discovery Kit), HDAC1. The note with it: for inhibition at 2 µM: 2 μM compound; for inhibition at 10 µM: 10 μM compound; for inhibition at 50 µM: 50 μM compound. Put shortly:
as §1

T4 sequence (Q13547 whole entry): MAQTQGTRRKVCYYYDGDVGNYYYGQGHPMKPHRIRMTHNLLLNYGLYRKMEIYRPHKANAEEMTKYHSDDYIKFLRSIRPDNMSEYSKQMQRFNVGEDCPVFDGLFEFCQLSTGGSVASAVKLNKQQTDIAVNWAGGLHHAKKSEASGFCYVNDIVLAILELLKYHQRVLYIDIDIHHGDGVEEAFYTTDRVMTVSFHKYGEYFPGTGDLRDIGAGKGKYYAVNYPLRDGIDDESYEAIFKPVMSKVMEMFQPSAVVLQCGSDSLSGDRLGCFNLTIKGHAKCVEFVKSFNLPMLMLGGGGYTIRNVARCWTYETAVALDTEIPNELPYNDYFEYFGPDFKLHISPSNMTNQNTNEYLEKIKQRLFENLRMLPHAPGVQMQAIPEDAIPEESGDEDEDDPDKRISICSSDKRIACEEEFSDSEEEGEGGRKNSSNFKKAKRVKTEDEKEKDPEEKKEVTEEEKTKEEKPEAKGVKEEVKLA
T2 sequence (O15379 whole entry): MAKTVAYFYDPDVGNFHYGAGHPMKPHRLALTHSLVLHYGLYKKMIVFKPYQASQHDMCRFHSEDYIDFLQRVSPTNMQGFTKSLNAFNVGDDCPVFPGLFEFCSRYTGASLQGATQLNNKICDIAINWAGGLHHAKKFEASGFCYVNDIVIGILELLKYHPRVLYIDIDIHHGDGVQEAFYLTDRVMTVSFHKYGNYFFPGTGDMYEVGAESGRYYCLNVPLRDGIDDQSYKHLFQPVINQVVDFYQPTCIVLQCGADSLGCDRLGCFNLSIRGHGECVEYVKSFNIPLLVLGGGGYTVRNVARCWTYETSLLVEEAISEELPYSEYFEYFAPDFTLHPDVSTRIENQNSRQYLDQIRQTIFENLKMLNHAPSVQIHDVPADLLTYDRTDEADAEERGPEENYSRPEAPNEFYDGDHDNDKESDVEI
T2 sequence (O75376 395-489 partner limits assumed): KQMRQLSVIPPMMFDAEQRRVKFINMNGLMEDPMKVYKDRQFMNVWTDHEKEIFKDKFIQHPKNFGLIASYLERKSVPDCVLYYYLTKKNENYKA
T3 sequence (Q92769 whole entry): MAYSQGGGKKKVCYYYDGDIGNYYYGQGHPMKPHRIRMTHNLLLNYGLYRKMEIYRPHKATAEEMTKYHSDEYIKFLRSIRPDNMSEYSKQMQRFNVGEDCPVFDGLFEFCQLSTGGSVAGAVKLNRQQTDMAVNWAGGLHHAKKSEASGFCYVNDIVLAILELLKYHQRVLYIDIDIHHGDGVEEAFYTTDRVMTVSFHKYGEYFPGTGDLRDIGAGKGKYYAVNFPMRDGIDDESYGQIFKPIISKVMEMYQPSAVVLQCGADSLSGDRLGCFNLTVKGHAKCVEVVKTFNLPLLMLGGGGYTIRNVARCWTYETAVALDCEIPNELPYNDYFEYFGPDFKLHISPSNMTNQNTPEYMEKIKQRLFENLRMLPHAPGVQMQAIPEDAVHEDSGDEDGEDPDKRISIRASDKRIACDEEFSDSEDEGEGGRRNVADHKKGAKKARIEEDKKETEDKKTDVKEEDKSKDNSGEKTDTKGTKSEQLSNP

On ATX (autotaxin), `Cc1[nH]c2ccccc2c1CCNC1CCc2cc(/C=C/C(=O)Nc3ccc(F)cc3N)ccc21` (stereo not drawn) [Compound 59, (E)-N-(2-amino-4-fluorophenyl)-3-(1-((2-(2-methyl-1H-indol-3-yl)ethyl)amino)-2,3-dihydro-1H-inden-5-yl)acrylamide] had an inhibition at 4 µM of under 50%, an inhibition at 20 µM of under 50% and an inhibition at 50 µM of under 50%. Moreover, on HDAC3, the inhibition at 2 µM was over 80%, the inhibition at 10 µM is over 80% and the inhibition at 50 µM was over 80%. At HDAC2, the inhibition at 2 µM is over 80%, the inhibition at 10 µM was over 80% and the inhibition at 50 µM is over 80%. Also, at HDAC1, the inhibition at 2 µM is 50 to 80%, the inhibition at 10 µM is over 80% and the inhibition at 50 µM is over 80%.

With `O=C(CCCCCNC(=O)COc1ccc2c(c1)CC/C(=C\c1cc(C(F)(F)F)cc(C(F)(F)F)c1)C2=O)NO` [Compound 74, (E)-6-(2-((6-(3,5-bis(trifluoromethyl)benzylidene)-5-oxo-5,6,7,8-tetra-hydronaphthalen-2-yl)oxy)acetamido)-N-hydroxyhexanamide], at ATX (autotaxin), the inhibition at 4 µM was over 80%, the inhibition at 20 µM is over 80% and the inhibition at 50 µM is over 80%. Moreover, at HDAC3, the inhibition at 2 µM is under 50%, the inhibition at 10 µM is over 80% and the inhibition at 50 µM is over 80%. Moreover, on HDAC2, the inhibition at 2 µM fell in the range of 50 to 80%, the inhibition at 10 µM was over 80% and the inhibition at 50 µM was over 80%. For the same compound, at HDAC1, the inhibition at 2 µM was under 50%, the inhibition at 10 µM is over 80% and the inhibition at 50 µM was over 80%.

For the compound `COc1ccc(S(=O)(=O)NC2CCc3cc(/C=C/C(=O)NO)ccc32)cc1` (stereo not drawn) [Compound 20, (E)-N-hydroxy-3-(1-((4-methoxyphenyl)sulfonamido)-2,3-dihydro-1H-inden-5-yl)acrylamide], at ATX (autotaxin), the inhibition at 4 µM is under 50%, the inhibition at 20 µM is under 50% and the inhibition at 50 µM is under 50%. For the same compound, at HDAC3, the inhibition at 2 µM is over 80%, the inhibition at 10 µM was over 80% and the inhibition at 50 µM was over 80%. At HDAC2, the inhibition at 2 µM fell in the range of 50 to 80%, the inhibition at 10 µM is over 80% and the inhibition at 50 µM is over 80%. On HDAC1, the inhibition at 2 µM was in the range of 50 to 80%, the inhibition at 10 µM is over 80% and the inhibition at 50 µM is over 80%.

On ATX (autotaxin), `O=C(/C=C/c1ccc2c(c1)CCC2NCCc1ccc(F)cc1)NO` (stereo not drawn) [Compound 53] yielded an inhibition at 4 µM of under 50%, an inhibition at 20 µM of under 50% and an inhibition at 50 µM of under 50%. Also, at HDAC3, the inhibition at 2 µM is over 80%, the inhibition at 10 µM is over 80% and the inhibition at 50 µM was over 80%. Besides, at HDAC2, the inhibition at 2 µM is over 80%, the inhibition at 10 µM is over 80% and the inhibition at 50 µM was over 80%. In addition, on HDAC1, the inhibition at 2 µM was over 80%, the inhibition at 10 µM was over 80% and the inhibition at 50 µM was over 80%.

On ATX (autotaxin), `Nc1cc(F)ccc1NC(=O)CCCCNC(=O)c1ccc2c(c1)CC/C(=C\c1cc(C(F)(F)F)cc(C(F)(F)F)c1)C2=O` [Compound 80] had an inhibition at 4 µM of under 50%, an inhibition at 20 µM of under 50% and an inhibition at 50 µM of 50 to 80%. Moreover, at HDAC3, the inhibition at 2 µM is under 50%, the inhibition at 10 µM was under 50% and the inhibition at 50 µM is under 50%. On HDAC2, the inhibition at 2 µM was under 50%, the inhibition at 10 µM was under 50% and the inhibition at 50 µM was under 50%. Besides, at HDAC1, the inhibition at 2 µM is under 50%, the inhibition at 10 µM is under 50% and the inhibition at 50 µM is under 50%.

On ATX (autotaxin), `CN(C)c1ccc(CCNC2CCc3cc(/C=C/C(=O)NO)ccc32)cc1` (stereo not drawn) [Compound 56, (E)-3-(1-((4-(dimethylamino)phenethyl)amino)-2,3-dihydro-1H-inden-5-yl)-N-hydroxyacrylamide] registered an inhibition at 4 µM of under 50%, an inhibition at 20 µM of under 50% and an inhibition at 50 µM of under 50%. Also, on HDAC3, the inhibition at 2 µM is over 80%, the inhibition at 10 µM was over 80% and the inhibition at 50 µM is over 80%. Moreover, at HDAC2, the inhibition at 2 µM is over 80%, the inhibition at 10 µM was over 80% and the inhibition at 50 µM was over 80%. Moreover, at HDAC1, the inhibition at 2 µM was over 80%, the inhibition at 10 µM is over 80% and the inhibition at 50 µM is over 80%.

At ATX (autotaxin), `O=C(CCCCNC(=O)c1ccc2c(c1)CC/C(=C\c1cc(C(F)(F)F)cc(C(F)(F)F)c1)C2=O)NO` [Compound 81, (E)-6-(3,5-bis(trifluoromethyl)benzylidene)-N-(5-(hydroxyamino)-5-oxopentyl)-5-oxo-5,6,7,8-tetrahydronaphthalene-2-carboxamide] returned an inhibition at 4 µM of over 80%, an inhibition at 20 µM of over 80% and an inhibition at 50 µM of over 80%. Further, at HDAC3, the inhibition at 2 µM was under 50%, the inhibition at 10 µM lay within 50 to 80% and the inhibition at 50 µM is 50 to 80%. For the same compound, on HDAC2, the inhibition at 2 µM was under 50%, the inhibition at 10 µM is under 50% and the inhibition at 50 µM was 50 to 80%. For the same compound, on HDAC1, the inhibition at 2 µM was under 50%, the inhibition at 10 µM was under 50% and the inhibition at 50 µM lay within 50 to 80%.

Regarding `O=C(CCCCCCC(=O)Nc1ccc2c(c1)CCCC2O)NO` (stereo not drawn) [Compound 2, N^1-hydroxy-N^8-(5-hydroxy-5,6,7,8-tetrahydronaphthalen-2-yl)octanediamide], at ATX (autotaxin), the inhibition at 4 µM was under 50%, the inhibition at 20 µM was under 50% and the inhibition at 50 µM was under 50%. Also, at HDAC3, the inhibition at 2 µM is over 80%, the inhibition at 10 µM is over 80% and the inhibition at 50 µM is over 80%. For the same compound, on HDAC2, the inhibition at 2 µM is over 80%, the inhibition at 10 µM is over 80% and the inhibition at 50 µM was over 80%. For the same compound, at HDAC1, the inhibition at 2 µM was over 80%, the inhibition at 10 µM is over 80% and the inhibition at 50 µM is over 80%.

For the compound `Nc1cc(F)ccc1NC(=O)CCCCCCC(=O)Nc1ccc2c(c1)CCC(Cc1cc(C(F)(F)F)cc(C(F)(F)F)c1)C2=O` (stereo not drawn) [Compound 9, N1-(2-amino-4-fluorophenyl)-N8-(6-(3,5-bis(trifluoromethyl)benzyl)-5-oxo-5,6,7,8-tetrahydronaphthalen-2-yl)octanediamide], at ATX (autotaxin), the inhibition at 4 µM was under 50%, the inhibition at 20 µM is under 50% and the inhibition at 50 µM is under 50%. On HDAC3, the inhibition at 2 µM was under 50%, the inhibition at 10 µM was under 50% and the inhibition at 50 µM was under 50%. Moreover, on HDAC2, the inhibition at 2 µM is under 50%, the inhibition at 10 µM was under 50% and the inhibition at 50 µM was under 50%. Besides, on HDAC1, the inhibition at 2 µM was under 50%, the inhibition at 10 µM is under 50% and the inhibition at 50 µM was under 50%.

As to `Nc1cc(F)ccc1NC(=O)/C=C/c1ccc2c(c1)CCCC2OCc1cc(C(F)(F)F)cc(C(F)(F)F)c1` (stereo not drawn) [Compound 35, (E)-N-(2-amino-4-fluorophenyl)-3-(5-((3,5-bis(trifluoromethyl)benzyl)oxy)-5,6,7,8-tetrahydronaphthalen-2-yl)acrylamide], at ATX (autotaxin), the inhibition at 4 µM is under 50%, the inhibition at 20 µM is under 50% and the inhibition at 50 µM was under 50%. Further, at HDAC3, the inhibition at 2 µM was under 50%, the inhibition at 10 µM is under 50% and the inhibition at 50 µM is 50 to 80%. At HDAC2, the inhibition at 2 µM was under 50%, the inhibition at 10 µM was under 50% and the inhibition at 50 µM is under 50%. Moreover, at HDAC1, the inhibition at 2 µM was under 50%, the inhibition at 10 µM was under 50% and the inhibition at 50 µM is under 50%.

At ATX (autotaxin), `Nc1cc(F)ccc1NC(=O)/C=C/c1ccc(COc2ccc3c(c2)CCCC3=O)cc1` [Compound 69, (E)-N-(2-amino-4-fluorophenyl)-3-(4-(((5-oxo-5,6,7,8-tetra-hydronaphthalen-2-yl)oxy)methyl)phenyl)acrylamide] returned an inhibition at 4 µM of under 50%, an inhibition at 20 µM of under 50% and an inhibition at 50 µM of under 50%. Further, at HDAC3, the inhibition at 2 µM is under 50%, the inhibition at 10 µM was under 50% and the inhibition at 50 µM is under 50%. Moreover, on HDAC2, the inhibition at 2 µM was under 50%, the inhibition at 10 µM was under 50% and the inhibition at 50 µM is 50 to 80%. Moreover, on HDAC1, the inhibition at 2 µM is under 50%, the inhibition at 10 µM is under 50% and the inhibition at 50 µM is under 50%.

On ATX (autotaxin), `O=C(/C=C/c1ccc2c(c1)CCC2NC(=O)c1ccc(F)cc1)NCCCCCC(=O)NO` (stereo not drawn) [Compound 32, (E)-4-fluoro-N-(5-(3-((6-(hydroxyamino)-6-oxohexyl)amino)-3-oxoprop-1-en-1-yl)-2,3-dihydro-1H-inden-1-yl)benzamide] returned an inhibition at 4 µM of under 50%, an inhibition at 20 µM of under 50% and an inhibition at 50 µM of under 50%. Also, on HDAC3, the inhibition at 2 µM fell in the range of 50 to 80%, the inhibition at 10 µM is over 80% and the inhibition at 50 µM was over 80%. On HDAC2, the inhibition at 2 µM was over 80%, the inhibition at 10 µM is over 80% and the inhibition at 50 µM is over 80%. In addition, at HDAC1, the inhibition at 2 µM is over 80%, the inhibition at 10 µM was over 80% and the inhibition at 50 µM was over 80%.

The term inhibition denotes the relative decrease from the control value, in per cent.

(Values after US12162820B2 (TAIWANJ PHARMACEUTICALS CO., LTD., priority 2019, dated 2024).)
